The target of one test is T1, ERbeta receptor (Homo sapiens, UniProt Q92731).
T1 construct: purchased PanVera
Description: ER beta competition binding assay (3H-Estradiol). The following applies: 3H-Estradiol competition; IC50 converted to Ki using Cheng-Prusoff; read-out: ER binding Ki (ERβ). As for the experimental part:
(§1) Competition binding assay is run in a buffer containing 50 mM Hepes, pH 7.5, 1.5 mM EDTA, 150 mM NaCl, 10% glycerol, 1 mg/ml ovalbumin and 5 mM DTT, using 0.025 μCi per well ^3H-Estradiol(NEN #NET517 at 118 Ci/mmol, 1 mCi/ml), 10 ng/well ERAlpha or ERbeta receptor (PanVera). Competing compounds are added at 10 different concentrations. Non-specific binding is determined in the presence of 1 μM of 17-B Estradiol. The binding reaction (140 μl) is incubated for 4 hours at room temperature, then 70 μl of cold DCC buffer is added to each reaction (DCC buffer contains per 50 ml of assay buffer, 0.75 g of charcoal (Sigma) and 0.25 g of dextran (Pharmacia)). Plates are mixed 8 minutes on an orbital shaker at 4° C. Plates are then centrifuged at 3,000 rpm at 4° C. for 10 minutes. An aliquot of 120 μl of the mix is transferred to another 96-well, white flat bottom plate (Costar) and 175 μl of Wallac Optiphase “Hisafe 3” scintillation fluid is added to each well. Plates are sealed and shaken vigorously on an orbital shaker. After an incubation of 2.5 hrs, read plates in a Wallac Microbeta counter. […] The Kd for ^3H-Estradiol is determined by saturation binding to ER alpha and ER beta receptors. The IC50 values for compounds are converted to Ki using Cheng-Prusoff equation and the Kd determined by saturation binding assay.

Test [1] concerns Ishikawa human endometrial tumor cells. Description: Ishikawa cell assay (PNPP readout), agonist mode. The format is cell-based. Particulars: for Emax / Ishikawa Agonist % Eff: % efficacy versus the response to Tamoxifen; for Emax: read-out: Ishikawa Agonist % Eff. The text has this: (§2) Ishikawa human endometrial tumor cells are maintained in MEM (minimum essential medium, with Earle's salts and L-Glutamine, Gibco BRL, Gaithersburg, Md.), supplemented with 10% fetal bovine serum (FBS) (V/V), (Gibco BRL). One day prior to assay, growth media is changed to assay medium, DMEM/F-12 (3:1) (Dulbecco's Modified Eagle Medium: Nutrient Mixture F-12, 3:1 Mixture, phenol red-free, Gibco BRL) supplemented with 5% dextran coated charcoal stripped fetal bovine serum (DCC-FBS) (Hyclone, Logen, Utah), L-Glutamine (2 mM), MEM sodium pyruvate (1 mM), HEPES (N-[2-hydroxyethyl]piperazine-N′-[2-ethanesulfonic acid] 2 mM) all from Gibco BRL). After an overnight incubation, ishikawa cells are rinsed with Dulbecco's Phosphate Buffered Saline (1×) (D-PBS) without Ca^+2 and Mg^+2 (Gibco BRL), and trypsinized by a 3 minute incubation with 0.25% Trypsin/EDTA, phenol red-free (Gibco BRL). Cells are resuspended in assay medium and adjusted to 250,000 cells/ml. Approximately 25,000 cells in a 100 ul media are added to flat-bottom 96 wells microculture plates (Costar 3596) and incubated at 37° C. in a 5% CO2 humidified incubator for 24 hours. The next day, serial dilutions of compounds are prepared in assay medium (at 6 times the final concentration in the assay). The assay is run in dual mode, agonist and antagonist modes. For the agonist mode, plates receive 25 μl/well of assay medium followed by 25 μl/well of diluted compounds (at 6× the final concentrations). For the antagonist mode, plates receive 25 μl/well of 6 nM E2 (β-Estradiol, Sigma, St. Louis, Mo.) followed by 25 μl/well of diluted compounds (at 6× the final concentrations). After an additional 48-hour incubation at 37° C. in a 5% CO2 humidified incubator, media is aspirated from wells and 100 μl fresh assay medium is added to each microculture. Serial dilutions of compounds are prepared and added to the cells as described above. After an additional 72 hour incubation at 37° C. in a 5% CO2 humidified incubator, the assay is quenched by removing media and rinsing plates twice in Dulbecco's Phosphate Buffered Saline (1×) (D-PBS) (Gibco BRL). The plates are dried for 5 min and frozen at −70° C. for at least 1 hour. The plates are then removed from the freezer and allowed to thaw at room temperature. To each well, 100 μl of 1-Step™ PNPP (Pierce Chemical Company, Rockford, Ill.) is added. After a 20-minute incubation, plates are read on a spectophotometer at 405 nm. The data is fitted to a linear interpolation to derive EC50 (for agonist mode) or IC50 (for antagonist mode) values. For the agonist mode, a % efficacy for each compound is calculated versus the response to Tamoxifen. For the antagonist mode, a % efficacy for each compound is calculated versus E2 (1 nM) alone.

The target in a further test is T2, ERAlpha receptor (Homo sapiens, UniProt P03372).
T2 construct: purchased PanVera
T2 sequence (P03372 1-595): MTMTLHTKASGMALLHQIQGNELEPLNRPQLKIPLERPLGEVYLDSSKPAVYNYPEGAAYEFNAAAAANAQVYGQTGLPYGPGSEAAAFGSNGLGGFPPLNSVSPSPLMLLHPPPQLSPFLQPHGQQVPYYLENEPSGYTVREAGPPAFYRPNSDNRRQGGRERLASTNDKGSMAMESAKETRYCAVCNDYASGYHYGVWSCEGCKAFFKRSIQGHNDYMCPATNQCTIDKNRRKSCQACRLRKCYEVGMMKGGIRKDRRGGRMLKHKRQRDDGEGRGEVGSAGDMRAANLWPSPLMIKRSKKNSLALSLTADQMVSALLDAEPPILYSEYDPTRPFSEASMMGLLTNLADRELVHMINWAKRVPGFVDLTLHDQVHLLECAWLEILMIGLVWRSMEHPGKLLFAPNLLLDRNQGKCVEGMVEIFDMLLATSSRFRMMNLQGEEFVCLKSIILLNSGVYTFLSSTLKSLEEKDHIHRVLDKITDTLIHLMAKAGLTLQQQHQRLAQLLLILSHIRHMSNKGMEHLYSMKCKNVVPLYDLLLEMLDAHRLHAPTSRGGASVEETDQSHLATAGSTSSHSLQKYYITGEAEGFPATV
As to the kind of experiment: ER alpha competition binding assay (3H-Estradiol). Particulars: 3H-Estradiol competition; IC50 converted to Ki using Cheng-Prusoff; read-out: ER binding Ki (ERα). As for the experimental part: as §1

Test [2] has as its system MCF-7 breast adenocarcinoma cells. Description: MCF-7 proliferation assay (14C-thymidine), antagonist mode. The format is cell-based. The following applies: with 10 pM E2. The protocol: MCF-7 breast adenocarcinoma cells (ATCC HTB 22) are maintained in MEM (minimal essential medium, phenol red-free, Gibco BRL) supplemented with 10% fetal bovine serum (FBS) (V/V), L-glutamine (2 mM), sodium pyruvate (1 mM), HEPES ((N-[2-hydroxyethyl]piperazine-N′-[2-ethanesulfonic acid]10 mM}, non-essential amino acids(0.1 mM)and Penicillin Streptomycin(1×). Seven days prior to assay, MCF-7 cells are switched to assay media which is the same as maintenance medium except supplemented with 10% dextran-coated charcoal-stripped fetal bovine serum (DCC-FBS) assay medium in place of 10% FBS. MCF-7 cells are removed from flasks using 10× Trypsin EDTA (phenol red free, Gibco BRL) and diluted to 1× in (Ca++/Mg++ free HBSS (phenol red-free). Cells are adjusted to 80,000 cells/ml in assay medium. Approximately 8,000 cells (100 μl) are added to each well in 96 well Cytostar T scintillation plates (Amersham) and incubated at 37° C. in a 5% CO2 humidified incubator for 24 hours to allow cell adherence and equilibration after transfer. Serial dilutions of drugs are prepared in assay medium at 4× the final desired concentration). A 50 μl aliquot of drug dilutions (at 4× the final assay concentration) is transferred to duplicate wells followed by 50 μl assay medium for the agonist mode or 50 μl of 40 pM of E2 for the antagonist mode to a final volume of 200 μl. For each of the agonist plates, a basal level (media) and a maximum stimulated level (with 1 μM E2) is determined. For each of the antagonist plates, a basal level (media) and a E2 (10 pM) alone control is determined. After an additional 48 hours at 37° C. in a 5% CO2 humidified incubator, 20 μl of assay medium containing 0.01 μCi of ^14C-thymidine (52 mCi/mmol, […], Amersham) is added to each well. The plates are incubated overnight in the same incubator and then counted on the Wallac Microbeta counter. […] For the agonist mode, an EC50 and percent of maximum E2 stimulation and concentration of maximum stimulation is calculated.

Test [3] deals with Ishikawa human endometrial tumor cells. Description: Ishikawa cell assay (PNPP readout), antagonist mode. In kind it is cell-based. The following applies: with 1 nM E2.
Text: as §2

Setting [4] is: Homo sapiens, MCF7, antagonist mode.

Structures can show the parent of a compound that is named as a salt. Where two headings read alike, the source gives them in different places.

Here are results for ten compounds from US7119206B2, “Derivative of dihydro-dibenzo (a) anthracenes and their use as selective estrogen receptor modulators” (Eli Lilly and Company, priority 2002, dated 2006).

By Ki is commonly meant the equilibrium dissociation constant of an inhibitor or competing ligand from its target. As a reminder, the EC50 is the concentration that produces a half-maximal response. A higher EC50 goes with weaker potency. The term IC50 denotes the concentration that gives 50% inhibition.

T1 sequence (Q92731 whole entry): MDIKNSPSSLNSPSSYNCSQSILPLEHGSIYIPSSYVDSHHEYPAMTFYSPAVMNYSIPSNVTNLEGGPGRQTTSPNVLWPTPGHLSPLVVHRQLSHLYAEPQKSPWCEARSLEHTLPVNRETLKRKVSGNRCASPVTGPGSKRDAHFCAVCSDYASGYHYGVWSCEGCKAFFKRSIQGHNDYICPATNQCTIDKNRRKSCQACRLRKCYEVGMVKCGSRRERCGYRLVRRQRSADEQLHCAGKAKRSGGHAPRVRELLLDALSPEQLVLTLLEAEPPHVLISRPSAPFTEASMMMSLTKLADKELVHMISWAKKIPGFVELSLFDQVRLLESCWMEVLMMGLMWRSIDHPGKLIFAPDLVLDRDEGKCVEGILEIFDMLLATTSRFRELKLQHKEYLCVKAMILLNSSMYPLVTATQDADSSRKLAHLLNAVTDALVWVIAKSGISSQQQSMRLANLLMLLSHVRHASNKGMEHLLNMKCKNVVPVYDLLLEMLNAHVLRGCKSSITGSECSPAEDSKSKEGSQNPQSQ

Turning to `Oc1ccc2c3c(ccc2c1)Cc1ccc(F)cc1C3c1ccc(OCCN2CCCCC2)cc1` (racemic) [Example 5, 10-Fluoro-12-[4-(2-piperidin-1-yl-ethoxy)-phenyl]-7,12-dihydro-benzo[a]anthracen-3-ol], the Ki at ERbeta receptor came out at 31 nM; on ERAlpha receptor, 3 nM. Further, in test [1] (Homo sapiens, Ishikawa), the EC50 came out at 11 nM. In test [1] (Homo sapiens, Ishikawa), the Emax came to 79%. Besides, the IC50 in test [2] (setting [4]) is 91 nM; in test [3] it was 610 nM.

With `Oc1ccc2c3c(ccc2c1)Cc1ccc(F)cc1C3c1ccc(OCCN2CCCCC2)cc1` (racemic) [Example 6, 10-fluoro-12-[4-(2-piperidin-1-yl-ethoxy)-phenyl]-7,12-dihydro-benzo[a]anthracen-3-ol], it took 116 nM to reach a half-maximal effect in test [1] (EC50). This compound also showed an IC50 in test [2] (antagonist mode) of 740 nM.

As for `Oc1ccc2c3c(ccc2c1)Cc1ccc(F)cc1C3c1ccc(OCCN2CCCCC2)cc1` (racemic) [Example 7, 10-fluoro-12-[4-(2-piperidin-1-yl-ethoxy)-phenyl]-7,12-dihydro-benzo[a]anthracen-3-ol], in test [1], the EC50 is 3 nM and the “Ishikawa Agonist % Eff” value came to 72%. The Ki on ERAlpha receptor turned out to be 1 nM. Besides, the midpoint of inhibition in test [2] (antagonist mode), the IC50, lay at 9 nM.

Regarding `Oc1ccc2c(c1)Cc1ccc3cc(O)ccc3c1C2c1ccc(OCCN2CCCCC2)cc1` (racemic) [Example 9, 12-[4-(2-Piperidin-1-yl-ethoxy)-phenyl]-7,12-dihydro-benzo[a]anthracene-3,9-diol], the Ki on ERbeta receptor is 4 nM. Further, in test [1], the EC50 came to 1 nM and the “Ishikawa Agonist % Eff” value came out at 27%. Moreover, in test [2] (antagonist mode), the IC50 turned out to be 2 nM.

As to `Oc1ccc2c(c1)Cc1ccc3cc(O)ccc3c1C2c1ccc(OCCN2CCCCC2)cc1` (racemic) [Example 10, 12-[4-(2-piperidin-1-yl-ethoxy)-phenyl]-7,12-dihydro-benzo[a]anthracene-3,9-diol], the inhibition constant Ki on ERbeta receptor is 5 nM. In test [1], the midpoint of the response, the EC50, lay at 3 nM and the “Ishikawa Agonist % Eff” value was 56%.

Turning to `Oc1ccc2c(c1)Cc1ccc3cc(O)ccc3c1C2c1ccc(OCCN2CCCCC2)cc1` (racemic) [Example 11, 12-[4-(2-piperidin-1-yl-ethoxy)-phenyl]-7,12-dihydro-benzo[a]anthracene-3,9-diol], the Ki at ERbeta receptor came out at 4 nM. In test [1], the EC50 turned out to be 1 nM and the “Ishikawa Agonist % Eff” value is on record as 19%. The compound also registered an IC50 in test [2] (antagonist mode) of 2 nM.

Consider `Oc1ccc2c3c(ccc2c1)Cc1ccc(F)cc1C3c1ccc(OCCN2CCCCC2)cc1` (single isomer, unassigned) [Example 6, 10-fluoro-12-[4-(2-piperidin-1-yl-ethoxy)-phenyl]-7,12-dihydro-benzo[a]anthracen-3-ol], for which the Ki on ERbeta receptor is 149 nM; on ERAlpha receptor, 70 nM. The Emax in test [1] (Homo sapiens, Ishikawa) was determined as 69%.

With `Oc1ccc2c3c(ccc2c1)Cc1ccc(F)cc1C3c1ccc(OCCN2CCCCC2)cc1` (single isomer, unassigned) [Example 7, 10-fluoro-12-[4-(2-piperidin-1-yl-ethoxy)-phenyl]-7,12-dihydro-benzo[a]anthracen-3-ol], the Ki at ERbeta receptor worked out at 9 nM. In test [3], this compound displayed an IC50 of 440 nM.

With `Oc1ccc2c3c(sc2c1)Cc1ccccc1C3c1ccc(OCCN2CCCCC2)cc1` (stereo not shown) [Example 1, 11-[4-(2-Piperidin-1-yl-ethoxy)-phenyl]-6,11-dihydro-benzo[b]naphtho[2,3-d]thiophen-3-ol trifluoroacetate], the Ki was determined as 5 nM at ERbeta receptor and 2 nM on ERAlpha receptor. In test [1] (Homo sapiens, Ishikawa), the EC50 was 3 nM. Besides, the Emax in test [1] (Homo sapiens, Ishikawa) amounted to 77%. For the same compound, the IC50 in test [2] (setting [4]) stood at 17 nM; in test [3], 712 nM.

With `Oc1ccc2c(c1)Cc1sc3cc(O)ccc3c1C2c1ccc(OCCN2CCCCC2)cc1` (stereo not shown) [Example 2, 11-[4-(2-Piperidin-1-yl-ethoxy)-phenyl]-6,11-dihydro-benzo[b]naphtho[2,3-d]thiophene-3,8-diol trifluoroacetate], the Ki at ERbeta receptor and on ERAlpha receptor was 1 nM throughout. The same compound displayed an EC50 in test [1] (Homo sapiens, Ishikawa) of 0.5 nM. In addition, the Emax in test [1] (Homo sapiens, Ishikawa) was determined as 103%. Also, the figures for the IC50 in test [2] (setting [4]) and in test [3] were 1 nM and 45 nM, respectively.
